Data as given in patent publication US10632095B2 (Zoetis Services LLC, priority 2013, dated 2020).
Read-outs that look alike come from different tables or passages of the source.

Experiments:
[1] = molecular target: T1, bovine COX-2 (Bos taurus, UniProt O62698); assay: Bovine in vitro whole blood COX inhibitor assay (PGE2); format: cell-based
T1 construct: using a bovine whole blood assay; from tissue; host or cells: heparinized bovine whole blood, LPS-treated
T1 sequence (O62698 18-604): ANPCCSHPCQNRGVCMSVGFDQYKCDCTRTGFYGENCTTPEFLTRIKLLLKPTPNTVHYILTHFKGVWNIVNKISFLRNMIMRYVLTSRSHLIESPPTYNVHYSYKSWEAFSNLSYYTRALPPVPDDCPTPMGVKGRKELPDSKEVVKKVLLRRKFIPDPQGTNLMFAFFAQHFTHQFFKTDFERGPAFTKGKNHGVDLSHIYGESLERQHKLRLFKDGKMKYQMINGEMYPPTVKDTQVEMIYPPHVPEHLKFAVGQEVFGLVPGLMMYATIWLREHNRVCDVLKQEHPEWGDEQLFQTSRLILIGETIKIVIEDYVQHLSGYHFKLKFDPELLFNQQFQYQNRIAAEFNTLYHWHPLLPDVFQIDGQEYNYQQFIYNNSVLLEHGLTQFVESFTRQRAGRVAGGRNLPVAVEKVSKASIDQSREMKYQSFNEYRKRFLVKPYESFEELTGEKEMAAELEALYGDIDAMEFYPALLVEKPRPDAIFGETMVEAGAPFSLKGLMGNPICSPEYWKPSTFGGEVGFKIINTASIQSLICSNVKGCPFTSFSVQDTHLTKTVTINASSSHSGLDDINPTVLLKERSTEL
Procedure: (§1) Briefly, heparinized blood was collected for both assays. The COX-1 assay involved treatment of the blood with protamine; to reverse the anti-coagulation effects of heparin; thus, inducing clotting and production of Thromboxane B2 (TXB2). The COX-2 assay involved treatment of blood with LPS to produce PGE2. Both assays included the presence of varying amounts of inhibitors, to inhibit the TXB2 or PGE2. […] Percent inhibition was calculated from the raw data for each drug dose based on the mean of the TXB2 or PGE2 concentrations. Then the mean % inhibition curves (% inhibition versus drug concentration) were analyzed via non-linear regression to yield individual IC50 and IC90 values.

[2] = molecular target: T2, bovine COX-1 (Bos taurus, UniProt O62664); assay: Bovine in vitro whole blood COX inhibitor assay (TXB2); format: cell-based
T2 construct: using a bovine whole blood assay; from tissue; host or cells: heparinized bovine whole blood, protamine-treated to induce clotting
T2 sequence (O62664 25-600): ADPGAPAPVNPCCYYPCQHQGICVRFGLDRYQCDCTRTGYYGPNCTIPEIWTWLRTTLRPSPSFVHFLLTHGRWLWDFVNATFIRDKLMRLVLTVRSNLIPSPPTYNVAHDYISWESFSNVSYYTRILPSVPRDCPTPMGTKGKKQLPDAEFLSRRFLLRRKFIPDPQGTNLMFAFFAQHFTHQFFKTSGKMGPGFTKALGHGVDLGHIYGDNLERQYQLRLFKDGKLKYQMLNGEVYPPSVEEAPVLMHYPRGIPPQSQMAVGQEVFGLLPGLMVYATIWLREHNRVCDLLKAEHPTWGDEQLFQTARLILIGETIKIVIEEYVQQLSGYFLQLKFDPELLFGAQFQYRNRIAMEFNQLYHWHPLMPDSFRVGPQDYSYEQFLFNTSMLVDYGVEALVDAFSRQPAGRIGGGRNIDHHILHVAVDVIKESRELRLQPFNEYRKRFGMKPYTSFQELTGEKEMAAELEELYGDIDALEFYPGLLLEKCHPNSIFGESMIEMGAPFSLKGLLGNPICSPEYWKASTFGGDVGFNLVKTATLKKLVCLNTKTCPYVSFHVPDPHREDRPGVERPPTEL
Procedure: as §1

[3] = system: swine influenza virus (SIV)-induced fever; format: in vivo
[4] = Hydrolysis in swine liver microsomes; format: in vitro ADME
[5] = molecular target: swine COX-1 (Sus scrofa, UniProt A0A287ANF9); assay: Porcine alveolar macrophage COX inhibitor assay (TXB2 read-out); format: cell-based; settings: for IC90: read-out: COX-1 IC90
Procedure: (§2) Alveolar macrophages were treated with a lipopolysaccharide (LPS), in the presence of varying amounts of inhibitors, to produce thromboxane B2 (TXB2) and/or prostaglandin E2 (PGE2). […] Each drug was tested in three different experiments on three different days (at a minimum).

[6] = molecular target: swine COX-2 (Sus scrofa, UniProt Q8SPR3); assay: Porcine alveolar macrophage COX inhibitor assay (PGE2 read-out); format: cell-based; settings: for IC90: read-out: COX-2 IC90
Procedure: as §2

[7] = Hydrolysis in swine plasma; format: in vitro ADME
[8] = system: LPS-induced lameness; assay: LPS-induced swine synovitis model; format: in vivo; settings: validation study, 2.2 mg/kg, IM
[9] = system: bradykinin; settings: Julou 1976; cited from earlier work
[10] = read-out: COX-1 IC50, LPS-treated porcine alveolar macrophages, TXB2 by ELISA, 21-24 hours incubation
[11] = read-out: COX-2 IC50, LPS-treated porcine alveolar macrophages, PGE2 by ELISA, 21-24 hours incubation
[12] = LPS-treated porcine alveolar macrophages, TXB2 by ELISA, 21-24 hours incubation, read-out: COX-1 IC50
[13] = LPS-treated porcine alveolar macrophages, TXB2 by ELISA, 21-24 hours incubation
[14] = LPS-treated porcine alveolar macrophages, PGE2 by ELISA, 21-24 hours incubation, read-out: COX-2 IC50
[15] = LPS-treated porcine alveolar macrophages, PGE2 by ELISA, 21-24 hours incubation

swine COX-1, sequence (A0A287ANF9 25-600): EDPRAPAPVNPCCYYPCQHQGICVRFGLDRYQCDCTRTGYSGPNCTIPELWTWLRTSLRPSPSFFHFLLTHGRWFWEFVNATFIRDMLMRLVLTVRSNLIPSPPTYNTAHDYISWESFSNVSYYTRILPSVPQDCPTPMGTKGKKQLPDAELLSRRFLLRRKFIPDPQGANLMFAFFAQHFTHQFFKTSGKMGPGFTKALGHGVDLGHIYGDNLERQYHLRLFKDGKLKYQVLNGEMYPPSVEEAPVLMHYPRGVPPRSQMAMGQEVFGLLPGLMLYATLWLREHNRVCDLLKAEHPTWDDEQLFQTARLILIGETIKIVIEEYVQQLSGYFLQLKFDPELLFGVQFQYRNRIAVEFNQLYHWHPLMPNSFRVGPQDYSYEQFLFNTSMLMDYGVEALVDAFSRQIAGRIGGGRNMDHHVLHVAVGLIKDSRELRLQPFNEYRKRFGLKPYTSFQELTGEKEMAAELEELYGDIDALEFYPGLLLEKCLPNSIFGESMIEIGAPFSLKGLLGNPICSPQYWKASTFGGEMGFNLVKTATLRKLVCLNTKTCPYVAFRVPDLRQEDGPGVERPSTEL
swine COX-2, sequence (Q8SPR3 entry or part of it): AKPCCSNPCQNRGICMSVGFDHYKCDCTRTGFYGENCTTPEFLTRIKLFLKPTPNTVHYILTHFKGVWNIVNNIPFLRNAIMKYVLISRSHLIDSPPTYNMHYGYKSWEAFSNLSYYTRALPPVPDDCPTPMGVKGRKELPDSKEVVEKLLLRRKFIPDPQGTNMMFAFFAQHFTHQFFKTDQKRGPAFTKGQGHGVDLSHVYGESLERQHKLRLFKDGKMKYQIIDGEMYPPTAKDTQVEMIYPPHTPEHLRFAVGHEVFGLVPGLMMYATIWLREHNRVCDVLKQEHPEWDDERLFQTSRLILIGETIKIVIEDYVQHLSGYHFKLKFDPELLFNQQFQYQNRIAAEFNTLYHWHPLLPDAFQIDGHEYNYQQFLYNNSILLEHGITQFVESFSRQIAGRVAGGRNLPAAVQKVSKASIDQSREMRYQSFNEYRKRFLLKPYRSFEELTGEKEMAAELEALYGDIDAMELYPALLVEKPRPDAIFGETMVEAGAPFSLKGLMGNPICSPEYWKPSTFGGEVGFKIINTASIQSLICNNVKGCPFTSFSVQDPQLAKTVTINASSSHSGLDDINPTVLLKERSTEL

Row | Compound | hydrolysis in swine liver microsomes [4] | IC50 [5, 10] [nM] | IC90 [5] [nM] | IC50 [6, 11] [nM] | IC90 [6] [nM] | hydrolysis in swine plasma [7] | IC50 [5, 12] [nM] | also measured
1 | COC(=O)C(C)c1cccc(C(=O)c2ccccc2)c1 (stereo not shown) [Formula 1, methyl 2-(3-benzoylphenyl)propanoate] | hydrolyzed rapidly | 260 | 1680 | 130 | 840 | moderately or slowly | – | IC50 [1]: 290 nM; IC90 ([1]; read-out: IC90 COX-2): 2290 nM; IC50 [2]: 500 nM; IC90 ([2]; read-out: IC90 COX-1): 3100 nM; anti-pyretic activity continues through (post-dose) ([3]; 6 mg/kg IM in Miglyol 812): ≥ 72 h; activity compared with vehicle at t=35 hours (11 hours post-dose) ([3]; Formula 1 4, 5, 6 mg/kg IM, Banamine 2.2 mg/kg IM): remained active; fever reduction compared with vehicle ([3]; young gilts, in Miglyol 812, 4, 5, 6 mg/kg IM, 24 hours after SIV, all timepoints from 1 hour post-dose): significantly reduced fever; onset of anti-pyretic efficacy post-dose ([3]; young gilts, in Miglyol 812, 4, 5 and 6 mg/kg IM): 1 h; potency relative to Meloxicam ([6]; swine COX, Table 1): about 5 times
2 | Cc1cnc(NC(=O)C2=C(O)c3ccccc3S(=O)(=O)N2C)s1 [Meloxicam] | – | – | 49300 | 560 | 9000 | – | 1020 | –
3 | CC(C(=O)OCCNC(=O)c1cccnc1)c1cccc(C(=O)c2ccccc2)c1 (stereo not shown) [Formula 3, 2-(nicotinamido)ethyl 2-(3-benzoylphenyl)propanoate] | hydrolyzed rapidly | 150 | 4860 | 120 | 930 | moderately or slowly | – | –
4 | CCOC(=O)C(C)c1cccc(C(=O)c2ccccc2)c1 (stereo not shown) [Formula 2, ethyl 2-(3-benzoylphenyl)propanoate] | hydrolyzed rapidly | – | – | – | – | moderately or slowly | – | –
5 | Cc1c(Nc2ncccc2C(=O)O)cccc1C(F)(F)F [Flunixin] | – | 66 | – | – | – | – | – | reduction of LPS-induced lameness [8]: effective at reducing LPS-induced lameness; IC90 [5, 13]: 747 nM; IC50 [6, 14]: 33 nM; IC90 [6, 15]: 507 nM
6 | CC(C(=O)O)c1cccc(C(=O)c2ccccc2)c1 (racemic) [Ketoprofen, 2-(3-benzoylphenyl)-propionic acid] | – | 7 | 80 | 6 | 80 | – | – | IC50 ([1]; read-out: IC50 against bovine COX-2): 220 nM; IC50 [2]: 30 nM; IC50 ([5]; read-out: IC50 against swine ortholog of COX-1, one range given for COX-1 and COX-2): 6 to 7 nM; IC50 ([6]; read-out: IC50 against swine ortholog of COX-2, one range given for COX-1 and COX-2): 6 to 7 nM; functional bradykinin antagonist activity, effects greater than indomethacin [9]: 8 times
7 | CC(C(=O)O)c1ccc2c(c1)[nH]c1ccc(Cl)cc12 (stereo not shown) [Carprofen] | – | – | 58400 | 3170 | 39000 | – | 5060 | –
8 | C[C@H](C(=O)O)c1cccc(C(=O)c2ccccc2)c1 (single isomer, unassigned) [Ketoprofen (S)-enantiomer] | – | – | – | – | – | – | 2 | IC90 [5, 13]: 60 nM; IC50 [6, 14]: 1 nM; IC90 [6, 15]: 40 nM
